Our source for the IC50 values is patent US20240425480A1, “NOVEL PYRIDINE DERIVATIVE COMPOUND AS RON INHIBITOR” (LG CHEM, LTD., priority 2021, published 2024).

One test deals with RON (Homo sapiens, UniProt Q04912). The test can be described thus: Inhibitory activity against RON, TR-FRET kinase assay. The class given is biochemical. To be noted: TR-FRET enzyme assay. The method in brief:
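Compounds (3-fold series from a 1 mM DMSO stock) were preincubated 20–30 min at RT with RON (0.4 nM solution) in pH 7.4 HEPES, 10 mM MgCl2 buffer. A 2× cocktail of 40 uM ULight-Poly GT and 100 nM ATP was then added for 60 min at RT. After EDTA stop, Eu anti-phosphotyrosine TR-FRET (665/620 nm) was read and IC50 derived.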
(In general: TR-FRET usually uses a lanthanide donor and a delayed reading to cut background.)

The target in the next test is cMET (Homo sapiens, UniProt P08581). The test can be described thus: Inhibitory activity against MET (cMET), TR-FRET kinase assay. Conditions: TR-FRET enzyme assay. The test is classed as biochemical. In outline: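 Human cMET (2 nM dilution) preincubated with compound 20-30 min at room temperature in HEPES pH 7.4 buffer with MnCl2/MgCl2, then 60 min with TK peptide and ATP substrate cocktail (5 uM peptide, 10 mM ATP, prepared at 2× final). EDTA-stopped; europium anti-phosphotyrosine TR-FRET read at 620/665 nm; pIC50 derived.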
cMET, sequence (P08581 25-1390): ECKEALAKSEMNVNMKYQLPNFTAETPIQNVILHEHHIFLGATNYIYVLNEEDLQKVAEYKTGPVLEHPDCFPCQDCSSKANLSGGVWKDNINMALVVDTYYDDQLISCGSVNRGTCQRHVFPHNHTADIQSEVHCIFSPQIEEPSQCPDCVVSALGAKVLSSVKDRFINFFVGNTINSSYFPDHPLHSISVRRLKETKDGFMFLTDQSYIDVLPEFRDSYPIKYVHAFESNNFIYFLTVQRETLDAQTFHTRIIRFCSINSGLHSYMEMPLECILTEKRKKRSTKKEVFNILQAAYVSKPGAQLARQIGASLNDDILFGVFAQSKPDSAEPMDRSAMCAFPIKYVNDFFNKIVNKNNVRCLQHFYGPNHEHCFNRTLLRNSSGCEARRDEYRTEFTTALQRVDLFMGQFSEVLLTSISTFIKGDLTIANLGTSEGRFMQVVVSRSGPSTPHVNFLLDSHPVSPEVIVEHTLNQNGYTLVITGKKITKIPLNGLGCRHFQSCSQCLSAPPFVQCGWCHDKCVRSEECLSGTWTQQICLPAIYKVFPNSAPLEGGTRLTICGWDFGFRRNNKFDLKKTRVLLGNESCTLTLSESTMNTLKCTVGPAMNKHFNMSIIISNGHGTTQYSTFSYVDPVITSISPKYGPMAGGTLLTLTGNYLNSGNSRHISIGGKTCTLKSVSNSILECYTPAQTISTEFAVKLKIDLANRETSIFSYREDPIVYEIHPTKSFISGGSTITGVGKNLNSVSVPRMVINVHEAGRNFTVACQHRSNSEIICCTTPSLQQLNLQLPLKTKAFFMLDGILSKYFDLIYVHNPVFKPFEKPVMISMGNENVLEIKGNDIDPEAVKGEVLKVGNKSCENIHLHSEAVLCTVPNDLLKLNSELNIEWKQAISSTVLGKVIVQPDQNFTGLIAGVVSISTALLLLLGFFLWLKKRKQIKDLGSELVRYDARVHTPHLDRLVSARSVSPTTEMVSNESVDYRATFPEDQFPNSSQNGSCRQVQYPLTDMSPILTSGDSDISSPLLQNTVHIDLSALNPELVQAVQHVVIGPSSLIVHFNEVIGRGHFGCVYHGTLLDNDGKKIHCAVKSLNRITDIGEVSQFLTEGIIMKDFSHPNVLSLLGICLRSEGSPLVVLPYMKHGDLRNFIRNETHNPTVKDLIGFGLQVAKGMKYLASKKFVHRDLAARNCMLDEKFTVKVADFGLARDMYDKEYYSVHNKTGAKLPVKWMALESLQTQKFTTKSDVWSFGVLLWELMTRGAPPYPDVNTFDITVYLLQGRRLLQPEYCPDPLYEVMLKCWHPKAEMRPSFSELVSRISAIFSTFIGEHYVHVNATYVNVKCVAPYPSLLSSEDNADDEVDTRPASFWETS

RON, sequence (Q04912 25-1400, species assumed): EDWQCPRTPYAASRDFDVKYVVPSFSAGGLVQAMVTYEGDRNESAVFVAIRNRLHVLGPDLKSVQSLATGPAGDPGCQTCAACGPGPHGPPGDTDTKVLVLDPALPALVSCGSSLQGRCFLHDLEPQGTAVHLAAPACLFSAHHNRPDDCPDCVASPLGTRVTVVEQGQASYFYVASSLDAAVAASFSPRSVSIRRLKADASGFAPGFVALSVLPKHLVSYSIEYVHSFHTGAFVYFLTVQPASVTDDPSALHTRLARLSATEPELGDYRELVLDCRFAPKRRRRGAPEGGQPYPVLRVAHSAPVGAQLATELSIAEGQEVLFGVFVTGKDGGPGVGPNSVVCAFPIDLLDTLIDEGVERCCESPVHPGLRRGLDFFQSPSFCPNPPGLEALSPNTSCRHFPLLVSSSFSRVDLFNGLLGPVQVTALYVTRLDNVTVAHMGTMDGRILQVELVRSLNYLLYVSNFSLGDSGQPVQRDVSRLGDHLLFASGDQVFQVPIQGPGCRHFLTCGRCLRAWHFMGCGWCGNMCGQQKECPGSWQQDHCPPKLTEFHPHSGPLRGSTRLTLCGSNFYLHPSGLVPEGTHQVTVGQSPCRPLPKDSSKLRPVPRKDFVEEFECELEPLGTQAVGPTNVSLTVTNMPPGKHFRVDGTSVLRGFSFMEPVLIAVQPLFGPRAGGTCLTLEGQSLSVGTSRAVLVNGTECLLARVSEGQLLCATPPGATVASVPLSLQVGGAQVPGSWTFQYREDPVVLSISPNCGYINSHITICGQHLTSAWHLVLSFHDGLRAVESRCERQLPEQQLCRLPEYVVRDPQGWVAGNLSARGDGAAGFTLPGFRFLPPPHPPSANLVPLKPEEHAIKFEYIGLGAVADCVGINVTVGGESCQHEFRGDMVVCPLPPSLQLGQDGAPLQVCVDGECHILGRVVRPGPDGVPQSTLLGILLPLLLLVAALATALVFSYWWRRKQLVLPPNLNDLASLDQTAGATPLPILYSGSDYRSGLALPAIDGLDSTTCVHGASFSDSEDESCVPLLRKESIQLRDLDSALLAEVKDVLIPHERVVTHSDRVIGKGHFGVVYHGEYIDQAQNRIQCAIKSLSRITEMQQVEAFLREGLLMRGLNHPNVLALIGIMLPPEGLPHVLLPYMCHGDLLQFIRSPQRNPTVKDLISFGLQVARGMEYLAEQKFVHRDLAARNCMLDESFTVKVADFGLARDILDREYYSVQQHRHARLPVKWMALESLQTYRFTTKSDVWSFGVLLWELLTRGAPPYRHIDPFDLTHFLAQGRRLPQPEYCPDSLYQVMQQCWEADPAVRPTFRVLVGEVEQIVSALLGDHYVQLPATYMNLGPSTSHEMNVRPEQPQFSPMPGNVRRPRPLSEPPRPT

In general, IC50 refers to the concentration that inhibits the measured activity by half. Turning to `Nc1ncnc(Oc2ccc(NC(=O)c3cnn(-c4cc(O)ccn4)c3C(F)(F)F)cc2F)c1Cl` [Example 64, N-[4-(6-amino-5-chloro-pyrimidin-4-yl)oxy-3-fluoro-phenyl]-1-(4-hydroxy-2-pyridyl)-5-(trifluoromethyl)pyrazole-4-carboxamide], the IC50 at RON was 50 to 500 nM; against cMET, more than 5000 nM.

`Nc1nccc(Oc2ccc(NC(=O)c3cnn(-c4ncccc4C(F)(F)F)c3C(F)(F)F)cc2F)c1Cl` [Example 11, N-(4-((2-amino-3-chloropyridin-4-yl)oxy)-3-fluorophenyl)-5-(trifluoromethyl)-1-(3-(trifluoromethyl)pyridin-2-yl)-1H-pyrazole-4-carboxamide]: the IC50 against RON lay within 50 to 500 nM; against cMET it was 500 to 5000 nM.

Regarding `Cc1ccnc(-n2ncc(C(=O)Nc3ccc(Oc4ccnc(N)c4Cl)c(F)c3)c2C(F)(F)F)n1` [Example 23, N-(4-((2-amino-3-chloropyridin-4-yl)oxy)-3-fluorophenyl)-1-(4-methylpyrimidin-2-yl)-5-(trifluoromethyl)-1 H-pyrazole-4-carboxamide], the values for the IC50 on RON and against cMET were 50 to 500 nM and more than 5000 nM, respectively.

As for `CCc1c(C(=O)Nc2ccc(Oc3ccnc(N)c3I)c(F)c2)cnn1-c1ncccc1Cl` [Example 38, N-(4-((2-amino-3-iodopyridin-4-yl)oxy)-3-fluorophenyl)-1-(3-chloropyridin-2-yl)-5-ethyl-1H-pyrazole-4-carboxamide], the concentration for half-maximal inhibition (IC50) at RON was less than 50 nM; on cMET, 500 to 5000 nM.

For `Nc1ncnc(Oc2ccc(NC(=O)c3cnn(-c4cncnc4)c3C(F)(F)F)cc2F)c1Cl` [Example 44, N-[4-(6-amino-5-chloro-pyrimidin-4-yl)oxy-3-fluoro-phenyl]-1-pyrimidin-5-yl-5-(trifluoromethyl)pyrazole-4-carboxamide], the IC50 on RON is 50 to 500 nM; against cMET it was more than 5000 nM.

For the compound `COc1cccnc1-n1ncc(C(=O)Nc2ccc(Oc3ccnc(N)c3Cl)c(F)c2)c1C(F)(F)F` [Example 15, N-(4-((2-amino-3-chloropyridin-4-yl)oxy)-3-fluorophenyl)-1-(3-methoxypyridin-2-yl)-5-(trifluoromethyl)-1H-pyrazole-4-carboxamide], the IC50 on RON was in the range of 50 to 500 nM; against cMET, 500 to 5000 nM.

With `O=C(Nc1ccc(Oc2ncnc(NC3CC3)c2Cl)c(F)c1)c1cnn(-c2ncccc2Cl)c1C(F)(F)F` [Example 66, N-[4-[5-chloro-6-(cyclopropylamino)pyrimidin-4-yl]oxy-3-fluoro-phenyl]-1-(3-chloro-2-pyridyl)-5-(trifluoromethyl)pyrazole-4-carboxamide], the IC50 at RON and on cMET was more than 5000 nM throughout.

On to `Cc1c(C(=O)Nc2ccc(Oc3ccnc(N)c3Cl)c(F)c2)cnn1-c1cncnc1` [Example 7, N-(4-((2-amino-3-chloropyridin-4-yl)oxy)-3-fluorophenyl)-5-methyl-1-(pyrimidin-5-yl)-1H-pyrazole-4-carboxamide], for which the 50% inhibitory concentration (IC50) is 50 to 500 nM against RON and more than 5000 nM against cMET.

Take `CCc1ccnc(-n2ncc(C(=O)Nc3ccc(Oc4ncnc(N)c4Cl)c(F)c3)c2C(F)(F)F)c1` [Example 55, N-[4-(6-amino-5-chloro-pyrimidin-4-yl)oxy-3-fluoro-phenyl]-1-(4-ethyl-2-pyridyl)-5-(trifluoromethyl)pyrazole-4-carboxamide]: the IC50 at RON is 500 to 5000 nM; on cMET, more than 5000 nM.

Consider `Nc1nccc(Oc2ccc(NC(=O)c3cnn(-c4ncccc4F)c3C(F)(F)F)cc2F)c1Cl` [Example 8, N-(4-((2-amino-3-chloropyridin-4-yl)oxy)-3-fluorophenyl)-1-(3-fluoropyridin-2-yl)-5-(trifluoromethyl)-1H-pyrazole-4-carboxamide], for which the results for the half-inhibitory concentration (IC50) against RON and on cMET were less than 50 nM and 500 to 5000 nM, respectively.
